Structures are written as SMILES. *1 amine or outer side, *2 acyl side, *3 side chain or, on linkers, in order; H or OH if unused. Where a SMILES comes first, the peptide text is derived from it. Side-chain parts run from the residue outwards. [ ]: non-standard residue; d: D form. The star is where a group is joined. C20 diacid = O=C(O)CCCCCCCCCCCCCCCCCCC(=O)*; γGlu = O=C(O)[C@H](CCC(=O)[*:2])N[*:1]; αMeF = C[C@](N)(Cc1ccccc1)C(=O)O; 4Pal = N[C@@H](Cc1ccncc1)C(=O)O; αMeL = CC(C)C[C@](C)(N)C(=O)O; AEEA = NCCOCCOCC(=O)O; Aib = CC(C)(N)C(=O)O Where only a bound is given, the exact number is not on record here.

One assay deals with T1, human GcgR (Homo sapiens, UniProt P47871).
T1 construct: expressed in transfected cells; crude membranes
The experiment in a line: [125I]-Glucagon binding, SPA with WGA beads, 0.1% bacitracin. The settings on record: geometric mean, read-out: hGcgR Ki. Put shortly: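 SPA competition binding with WGA beads on crude membranes from HEK293 cells stably expressing hGcgR. Buffer: 25 mM HEPES pH 7.4, 2.5 mM CaCl2, 1 mM MgCl2, 0.1% bacitracin, 0.003% Tween-20; 10-point 3-fold dilutions, NSB with 1 μM Gcg.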

The next assay has as its target T2, human GIPR (Homo sapiens, UniProt P48546).
T2 construct: expressed in transfected cells; crude membranes
T2 sequence (P48546 22-466): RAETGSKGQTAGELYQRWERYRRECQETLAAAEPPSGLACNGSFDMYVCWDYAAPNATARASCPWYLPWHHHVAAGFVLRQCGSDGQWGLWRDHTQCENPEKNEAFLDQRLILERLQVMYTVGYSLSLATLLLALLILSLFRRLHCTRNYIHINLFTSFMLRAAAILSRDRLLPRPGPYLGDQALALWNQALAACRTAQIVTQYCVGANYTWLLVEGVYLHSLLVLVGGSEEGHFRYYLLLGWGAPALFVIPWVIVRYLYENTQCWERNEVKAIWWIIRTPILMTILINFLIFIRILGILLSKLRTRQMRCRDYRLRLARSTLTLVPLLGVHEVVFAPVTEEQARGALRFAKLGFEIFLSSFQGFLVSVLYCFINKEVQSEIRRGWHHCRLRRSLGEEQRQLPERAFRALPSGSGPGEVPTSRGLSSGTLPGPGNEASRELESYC
The experiment in a line: [125I]-GIP binding, SPA with WGA beads, 0.1% bacitracin. Conditions: geometric mean, read-out: hGIPR Ki. Put shortly: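 Ki values are geometric means (SEM, n independent days), derived from four-parameter nonlinear regression of IC50. Membranes came from hGIPR-expressing CHO cells.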

T1 sequence (P47871 26-477): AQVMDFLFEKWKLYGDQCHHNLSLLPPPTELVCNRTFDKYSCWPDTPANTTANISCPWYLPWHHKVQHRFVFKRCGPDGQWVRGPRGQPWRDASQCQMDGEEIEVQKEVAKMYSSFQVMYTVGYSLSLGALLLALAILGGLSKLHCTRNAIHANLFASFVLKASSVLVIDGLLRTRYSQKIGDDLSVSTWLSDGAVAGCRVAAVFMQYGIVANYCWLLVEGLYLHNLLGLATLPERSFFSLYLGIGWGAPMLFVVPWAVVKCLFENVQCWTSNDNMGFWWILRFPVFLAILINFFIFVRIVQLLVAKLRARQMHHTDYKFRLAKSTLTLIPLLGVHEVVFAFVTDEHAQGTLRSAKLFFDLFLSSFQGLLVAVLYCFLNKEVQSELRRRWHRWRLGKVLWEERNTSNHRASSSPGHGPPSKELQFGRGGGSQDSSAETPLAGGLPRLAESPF

A word on the Ki: it is the equilibrium dissociation constant of an inhibitor or competing ligand from its target. Turning to `CC[C@H](C)[C@H](NC(=O)[C@H](CO)NC(=O)[C@H](Cc1ccc(O)cc1)NC(=O)[C@H](CC(=O)O)NC(=O)[C@H](CO)NC(=O)[C@@H](NC(=O)[C@](C)(Cc1ccccc1)NC(=O)[C@@H](NC(=O)CNC(=O)[C@H](CCC(=O)O)NC(=O)C(C)(C)NC(=O)[C@@H](N)Cc1ccc(O)cc1)[C@@H](C)O)[C@@H](C)CC)C(=O)N[C@@](C)(CC(C)C)C(=O)N[C@@H](CC(C)C)C(=O)N[C@@H](CC(=O)O)C(=O)N[C@@H](CCCCN)C(=O)N[C@@H](CCCCNC(=O)COCCOCCNC(=O)COCCOCCNC(=O)CC[C@H](NC(=O)CCCCCCCCCCCCCCCCCCC(=O)O)C(=O)O)C(=O)N[C@@H](Cc1c[nH]cn1)C(=O)N[C@@H](CCC(N)=O)C(=O)NC(C)(C)C(=O)N[C@@H](CCC(=O)O)C(=O)N[C@@H](Cc1ccccc1)C(=O)N[C@H](C(=O)N[C@@H](CCC(=O)O)C(=O)N[C@@H](Cc1ccncc1)C(=O)N[C@@H](CC(C)C)C(=O)N[C@@H](CC(C)C)C(=O)N[C@@H](C)C(=O)N[C@H](C(=O)NCC(=O)N1CCC[C@H]1C(=O)N[C@@H](CO)C(=O)N[C@@H](CO)C(=O)NCC(=O)N[C@@H](C)C(=O)N1CCC[C@H]1C(=O)N1CCC[C@H]1C(=O)N1CCC[C@H]1C(=O)N[C@@H](CO)C(N)=O)[C@@H](C)O)C(C)C` [Example 61] (H-Y[Aib]EGT[αMeF]ISDYSI[αMeL]LDKK([AEEA-AEEA-γGlu-C20 diacid])HQ[Aib]EFVE[4Pal]LLATGPSSGAPPPS-NH2), the Ki on human GcgR amounted to 80400 pM; on human GIPR, 66.5 pM.

For `CC[C@H](C)[C@H](NC(=O)[C@H](Cc1ccccc1)NC(=O)[C@@H](NC(=O)CNC(=O)[C@H](CCC(=O)O)NC(=O)C(C)(C)NC(=O)[C@@H](N)Cc1ccc(O)cc1)[C@@H](C)O)C(=O)N[C@@H](CO)C(=O)N[C@@H](CC(=O)O)C(=O)N[C@@H](Cc1ccc(O)cc1)C(=O)N[C@@H](CO)C(=O)N[C@H](C(=O)N[C@@](C)(CC(C)C)C(=O)N[C@@H](CC(C)C)C(=O)N[C@@H](CC(=O)O)C(=O)N[C@@H](CCCCN)C(=O)N[C@@H](CCCCNC(=O)COCCOCCNC(=O)COCCOCCNC(=O)CC[C@H](NC(=O)CCCCCCCCCCCCCCCCCCC(=O)O)C(=O)O)C(=O)N[C@@H](Cc1c[nH]cn1)C(=O)N[C@@H](CCC(N)=O)C(=O)NC(C)(C)C(=O)N[C@@H](CC(=O)O)C(=O)N[C@@H](Cc1ccccc1)C(=O)N[C@H](C(=O)N[C@@H](CCC(=O)O)C(=O)N[C@@H](Cc1c[nH]c2ccccc12)C(=O)N[C@@H](CC(C)C)C(=O)N[C@@H](CC(C)C)C(=O)N[C@@H](CCC(=O)O)C(=O)N[C@H](C(=O)NCC(=O)N1CCC[C@H]1C(=O)N[C@@H](CO)C(=O)N[C@@H](CO)C(=O)NCC(=O)N[C@@H](C)C(=O)N1CCC[C@H]1C(=O)N1CCC[C@H]1C(=O)N1CCC[C@H]1C(=O)N[C@@H](CO)C(N)=O)[C@@H](C)O)C(C)C)[C@@H](C)CC` [Example 71] (H-Y[Aib]EGTFISDYSI[αMeL]LDKK([AEEA-AEEA-γGlu-C20 diacid])HQ[Aib]DFVEWLLETGPSSGAPPPS-NH2), the Ki on human GcgR was determined as 102000 pM; on human GIPR, 42.2 pM.

Regarding `CC[C@H](C)[C@H](NC(=O)[C@H](CO)NC(=O)[C@H](Cc1ccc(O)cc1)NC(=O)[C@H](CC(=O)O)NC(=O)[C@H](CO)NC(=O)[C@@H](NC(=O)[C@](C)(Cc1ccccc1)NC(=O)[C@@H](NC(=O)CNC(=O)[C@H](CCC(=O)O)NC(=O)C(C)(C)NC(=O)[C@@H](N)Cc1ccc(O)cc1)[C@@H](C)O)[C@@H](C)CC)C(=O)N[C@@H](C)C(=O)N[C@@H](CC(C)C)C(=O)N[C@@H](CC(=O)O)C(=O)N[C@@H](CCCCN)C(=O)N[C@@H](CCCCNC(=O)COCCOCCNC(=O)COCCOCCNC(=O)CC[C@H](NC(=O)CCCCCCCCCCCCCCCCCCC(=O)O)C(=O)O)C(=O)N[C@@H](Cc1c[nH]cn1)C(=O)N[C@@H](CCC(N)=O)C(=O)NC(C)(C)C(=O)N[C@@H](CC(=O)O)C(=O)N[C@@H](Cc1ccccc1)C(=O)N[C@H](C(=O)N[C@@H](CCC(=O)O)C(=O)N[C@@H](Cc1ccncc1)C(=O)N[C@@H](CC(C)C)C(=O)N[C@@H](CC(C)C)C(=O)N[C@@H](CCC(=O)O)C(=O)N[C@@H](C)C(=O)NCC(=O)N1CCC[C@H]1C(=O)N[C@@H](CO)C(=O)N[C@@H](CO)C(=O)NCC(=O)N[C@@H](C)C(=O)N1CCC[C@H]1C(=O)N1CCC[C@H]1C(=O)N1CCC[C@H]1C(=O)N[C@@H](CO)C(N)=O)C(C)C` [Example 43] (H-Y[Aib]EGT[αMeF]ISDYSIALDKK([AEEA-AEEA-γGlu-C20 diacid])HQ[Aib]DFVE[4Pal]LLEAGPSSGAPPPS-NH2), the Ki at human GcgR worked out at 285000 pM; at human GIPR, 36.6 pM.

Regarding `CC[C@H](C)[C@H](NC(=O)[C@H](Cc1ccccc1)NC(=O)[C@@H](NC(=O)CNC(=O)[C@H](CCC(=O)O)NC(=O)C(C)(C)NC(=O)[C@@H](N)Cc1ccc(O)cc1)[C@@H](C)O)C(=O)N[C@@H](CO)C(=O)N[C@@H](CC(=O)O)C(=O)N[C@@H](Cc1ccc(O)cc1)C(=O)N[C@@H](CO)C(=O)N[C@H](C(=O)N[C@@](C)(CC(C)C)C(=O)N[C@@H](CC(C)C)C(=O)N[C@@H](CC(=O)O)C(=O)N[C@@H](CCCCN)C(=O)N[C@@H](CCCCNC(=O)COCCOCCNC(=O)COCCOCCNC(=O)CC[C@H](NC(=O)CCCCCCCCCCCCCCCCC(=O)O)C(=O)O)C(=O)N[C@@H](Cc1c[nH]cn1)C(=O)N[C@@H](CCC(N)=O)C(=O)NC(C)(C)C(=O)N[C@@H](CC(=O)O)C(=O)N[C@@H](Cc1ccccc1)C(=O)N[C@H](C(=O)N[C@@H](CCC(=O)O)C(=O)N[C@@H](Cc1ccncc1)C(=O)N[C@@H](CC(C)C)C(=O)N[C@@H](CC(C)C)C(=O)N[C@@H](C)C(=O)NCC(=O)NCC(=O)N1CCC[C@H]1C(=O)N[C@@H](CO)C(=O)N[C@@H](CO)C(=O)NCC(=O)N[C@@H](C)C(=O)N1CCC[C@H]1C(=O)N1CCC[C@H]1C(=O)N1CCC[C@H]1C(=O)N[C@@H](CO)C(N)=O)C(C)C)[C@@H](C)CC` [Example 49], the Ki at human GcgR is above 960000 pM; on human GIPR, 51.2 pM.

With `CC[C@H](C)[C@H](NC(=O)[C@H](CC(C)C)NC(=O)[C@@H](NC(=O)CNC(=O)[C@H](CCC(=O)O)NC(=O)C(C)(C)NC(=O)[C@@H](N)Cc1ccc(O)cc1)[C@@H](C)O)C(=O)N[C@@H](CO)C(=O)N[C@@H](CC(=O)O)C(=O)N[C@@H](Cc1ccc(O)cc1)C(=O)N[C@@H](CO)C(=O)N[C@H](C(=O)N[C@@](C)(CC(C)C)C(=O)N[C@@H](CC(C)C)C(=O)N[C@@H](CC(=O)O)C(=O)N[C@@H](CCCCN)C(=O)N[C@@H](CCCCNC(=O)COCCOCCNC(=O)COCCOCCNC(=O)CC[C@H](NC(=O)CCCCCCCCCCCCCCCCCCC(=O)O)C(=O)O)C(=O)N[C@@H](Cc1c[nH]cn1)C(=O)N[C@@H](CCC(N)=O)C(=O)NC(C)(C)C(=O)N[C@@H](CCC(=O)O)C(=O)N[C@@H](Cc1ccccc1)C(=O)N[C@H](C(=O)N[C@@H](CCC(=O)O)C(=O)N[C@@H](Cc1ccc(O)cc1)C(=O)N[C@@H](CC(C)C)C(=O)N[C@@H](CC(C)C)C(=O)N[C@@H](CCC(=O)O)C(=O)N[C@H](C(=O)NCC(=O)N1CCC[C@H]1C(=O)N[C@@H](CO)C(=O)N[C@@H](CO)C(=O)NCC(=O)N[C@@H](C)C(=O)N1CCC[C@H]1C(=O)N1CCC[C@H]1C(=O)N1CCC[C@H]1C(=O)N[C@@H](CO)C(N)=O)[C@@H](C)O)C(C)C)[C@@H](C)CC` [Example 72] (H-Y[Aib]EGTLISDYSI[αMeL]LDKK([AEEA-AEEA-γGlu-C20 diacid])HQ[Aib]EFVEYLLETGPSSGAPPPS-NH2), the Ki worked out at 837000 pM on human GcgR and 59.4 pM on human GIPR.

Take `CC[C@H](C)[C@H](NC(=O)[C@H](Cc1ccccc1)NC(=O)[C@@H](NC(=O)CNC(=O)[C@H](CCC(=O)O)NC(=O)C(C)(C)NC(=O)[C@@H](N)Cc1ccc(O)cc1)[C@@H](C)O)C(=O)N[C@@H](CO)C(=O)N[C@@H](CC(=O)O)C(=O)N[C@@H](Cc1ccc(O)cc1)C(=O)N[C@@H](CO)C(=O)N[C@H](C(=O)N[C@@](C)(CC(C)C)C(=O)N[C@@H](CC(C)C)C(=O)N[C@@H](CC(=O)O)C(=O)N[C@@H](CCCCN)C(=O)N[C@@H](CCCCNC(=O)COCCOCCNC(=O)COCCOCCNC(=O)CC[C@H](NC(=O)CCCCCCCCCCCCCCCCCCC(=O)O)C(=O)O)C(=O)N[C@@H](Cc1c[nH]cn1)C(=O)N[C@@H](CCC(N)=O)C(=O)NC(C)(C)C(=O)N[C@@H](CCC(=O)O)C(=O)N[C@@H](Cc1ccccc1)C(=O)N[C@H](C(=O)N[C@@H](CCC(=O)O)C(=O)N[C@@H](Cc1ccncc1)C(=O)N[C@@H](CC(C)C)C(=O)N[C@@H](CC(C)C)C(=O)N[C@@H](C)C(=O)N[C@@H](CCC(N)=O)C(=O)NCC(=O)N1CCC[C@H]1C(=O)N[C@@H](CO)C(=O)N[C@@H](CO)C(=O)NCC(=O)N[C@@H](C)C(=O)N1CCC[C@H]1C(=O)N1CCC[C@H]1C(=O)N1CCC[C@H]1C(=O)N[C@@H](CO)C(N)=O)C(C)C)[C@@H](C)CC` [Example 57] (H-Y[Aib]EGTFISDYSI[αMeL]LDKK([AEEA-AEEA-γGlu-C20 diacid])HQ[Aib]EFVE[4Pal]LLAQGPSSGAPPPS-NH2): the values for the Ki on human GcgR and at human GIPR were 422000 pM and 15.4 pM, respectively.

The record behind these values is US12723063B2, “GIPR-agonist compounds” (Eli Lilly and Company, priority 2019, dated 2026).
